The values below come from US10654852B2, “Antibiotics and methods of using same” (THE BROAD INSTITUTE, INC., priority 2016, dated 2020).

Each structure is given as a SMILES string. ≈ marks a conversion by molar mass, not a printed value. Read-outs that look alike come from different tables or passages of the source.

Assay [1] has as its system Escherichia coli CCUG-59353. The assay can be described thus: MIC (50% NHS). Type of assay: cell-based. The note with it: CCUG59353; Escherichia coli CCUG-59353, 50% NHS.
For assay [2], the system named is Escherichia coli ATCC-25922. Description: MIC in the presence of normal human serum (50% NHS). Type of assay: cell-based. Particulars: ATCC25922. The text has this: As used herein, the term “MIC” refers to minimum inhibitory concentrations. Minimum inhibitory concentrations may be determined by broth microdilution according to the Clinical and Laboratory Standards Institute guidelines (see, e.g., […]-A8. Methods for dilution antimicrobial susceptibility tests for bacteria that grow aerobically: approved standard, 8th Ed.; […] One example for measuring minimum inhibitory concentrations may be found in Reck et al., 2012, J. Med. Chem. 55:6916-6933, the disclosure of which is incorporated by reference. Inoculants may be incubated on blood agar plates for 18 to 24 hours. Incubation may occur at a temperature from about 35° C. to about 37° C. […] In serum supplemented experiments, the testing medium (e.g., DMSO solution) and human serum may be mixed. The ratio of testing medium to human serum may be 1:1 (vol:vol). Plates may be read by spectrophotometry at 620 nm. Unless indicated otherwise, all inhibitory concentrations recited in the specification relate to MICs. The MIC tests were based on broth microdilution method in CLSI-M7. […] Solutions of varying concentrations of DMSO were prepared in wells of a v-bottom 96-well plate (Axygen-WIPP02280). A multi-pipette was used to perform serial dilutions as necessary. From well to well, the drug concentrations were 6.4, 3.2, 1.6, 0.8, 0.4, 0.2, 0.1, 0.05, 0.025, 0.0125, 0.00625 and 0 mg/ml in DMSO. For extremely potent antibiotic, the starting concentrations were adjusted accordingly. This was the drug mother plate. Daughter plates were prepared by placing 98 μl of a testing medium into each well of a u-bottom 96-well plate (Costar 3788). An aliquot of each 2 μl solution from each well of the mother plate was then transferred into the corresponding wells of the daughter plate using a multi-pipette work station (CyBi®-SELMA). Testing media were selected based on CLSI-M7, M11 and […]. Cation adjusted Mueller Hinton Broth (CA-MHB-212322) was the testing medium for majority of bacterial species. Brucella medium (BD-211088) supplemented with 5% LHB, 0.5% hemin and 0.1% vitamin K1 (Sigma-95271) was the testing medium for anaerobic bacteria. One day prior to the day of MIC test, bacterial strains were streaked out from -80° C. glycerol stock onto Trypticase Soy Agar (TSA) plates (Brucella blood agar for anaerobic bacteria) and incubated at 37° C. for 20 hours (in anaerobic condition for anaerobic bacteria, e.g., 80% N2, 10% H2 and 10% CO2). Single colonies of bacteria were picked by using an inoculation loop (Greiner-731175) and suspended into 5 ml sterile saline. The turbidity of the suspension was adjusted to 0.10 (Siemens MicroS can turbidity meter), which implies a concentration of colony forming units (“CFU”) of approximately 1.0×10^8 CFU/ml. The bacterial suspension was diluted 100× in testing media. For MIC experiments with NHS, testing medium and human serum (Equitech Bio Inc. BRH-949908) were mixed in the ratio of 1:1. This was used for inoculation of the daughter plates. An aliquot of 100 μl of the bacterial suspension was inoculated into each well of the daughter plates using a multi-pipette. […] The plates were incubated in ambient atmosphere and at 37° C. in an incubator for 20 hours (for anaerobic bacteria in an anaerobic condition as described above for 48 hours). The MIC values were determined and based on the standards of CLSI methods M7-A7, broth microdilution method. […] Test compounds were compared to control antibiotics Penicillin G (Sigma-13752) and levofloxacin (Sigma-28266). […] Additionally, the MIC's of another gyrase inhibitor (“GSK”) with a structure different from the inventive compounds and the antibacterial levofloxin was measured. MIC are given in μg/mL.

[3] abbreviates: Escherichia coli ATC-25922, 50% normal human serum, Table 5, read-out: MIC (50% NHS).
[4] abbreviates: Escherichia coli ATCC-25922, 50% NHS, Table 6, read-out: MIC.

For the compound `CN1CC2CN(C(=O)Nc3cc(F)cc(F)c3)CC(C1)C2(O)c1ccc(-c2ccc(CN)cc2C#N)cc1` [Compound 23, (1R,5S,9r)-9-(4′-(aminomethyl)-2′-cyano-[1,1′-biphenyl]-4-yl)-N-(3,5-difluorophenyl)-9-hydroxy-7-methyl-3,7-diazabicyclo[3.3.1]nonane-3-carboxamide], the MIC in assay [1] was found to be 2 µg/mL (≈ 3.86 µM); in assay [2] (setting [3]), 0.5 µg/mL; in assay [2] (setting [4]), 0.5 µg/mL.

Consider `CN1CC2CN(C(=O)Nc3cc(F)cc(F)c3)CC(C1)C2(O)c1ccc(-c2ccc(CN)cc2C#N)cn1` [Compound 24, (1R,5S,9r)-9-(5-(4-(aminomethyl)-2-cyanophenyl)pyridin-2-yl)-N-(3,5-difluorophenyl)-9-hydroxy-7-methyl-3,7-diazabicyclo[3.3.1]nonane-3-carboxamide], for which the MIC in assay [1] was 4 µg/mL (≈ 7.71 µM); in assay [2] (setting [3]), 0.25 µg/mL; in assay [2] (setting [4]), 1 µg/mL.

For `CNCc1ccc(-c2ccc(C3(O)C4CN(C)CC3CN(C(=O)Nc3cc(F)cc(F)c3)C4)nc2)c(C#N)c1` [Compound 17, (1R,5S,9r)-9-(5-(2-cyano-4-((methylamino)methyl)phenyl)pyridin-2-yl)-N-(3,5-difluorophenyl)-9-hydroxy-7-methyl-3,7-diazabicyclo[3.3.1]nonane-3-carboxamide], the MIC in assay [1] is 1.78 µg/mL (≈ 3.34 µM); in assay [2] (setting [3]), 0.5 µg/mL; in assay [2] (setting [4]), 0.22 µg/mL.

As a reminder, the MIC is the lowest concentration found to suppress growth.
